Measured values from patent US8361970B2, “Growth factor binding molecules” (University of South Florida, priority 2000, dated 2013).
Read-outs that look alike come from different tables or passages of the source.

What was measured:
[1] = tested on: PDGF-stimulated PDGFR tyrosine phosphorylation; assay: Inhibition of PDGF-stimulated PDGFR tyrosine phosphorylation in NIH 3T3 cells (anti-phosphotyrosine Western blot); format: cell-based
Method: Starved NIH 3T3 cells are pretreated with various growth factor binding agents (0-100 μM) for 5 min before stimulation with PDGF (10 ng/mL) for 10 min. The cells are then harvested and lysed, and the proteins from the lysates separated by SDS-PAGE and immunoblotted with an anti-phosphotyrosine antibody (4G10: Upstate Biotechnology, Lake Placid, N.Y.). The phosphotyrosine PDGF receptor bands are scanned, and the concentrations of growth factor binding molecules that inhibited the ability of PDGF to stimulate PDGFR tyrosine phosphorylation by 50% are determined.
Starved NIII 3T3 cells (PDGF-BB and PDGF-AA), NIH 3T3 cells overexpressing either EGFR (EGF) or Flk-1 (VEGF) are pre-treated with the indicated concentrations of GFB-111 for 5 minutes before 10 minutes of stimulation with PDGF-BB (10 ng/ml), PDGF-AA (10 ng/ml), EGF (100 ng/ml) and VEGF (50 ng/ml). Cell lysates are run on SDS-PAGE gels, then transferred to nitrocellulose and Western blotted with anti-phosphotyrosine (4G 10) or anti-phosphorylated Erk1/Erk2 (New England Biolabs).
A novel series of protein surface binding agents are prepared that bind PDGF and disrupt its signaling function. The molecules are composed of a central calix[4] arene scaffold to which is attached four peptide loop domains (FIG. 1). The peptide loop component is based on a cyclic hexapeptide in which two residues are replaced by a 3-aminomethylbenzoate dipeptide mimetic containing a 5-amino substituent for attachment to the scaffold. The resulting molecules (as shown in Table 1) contain a functionalized and variable surface approximately 500 Å^2 in area. Several peptide loop sequences are synthesized (Table 1) to provide molecular surfaces with negatively and positively charged as well as hydrophobic regions designed to bind to complementary areas on the target growth factor. To identify PDGF binding molecules from this library, a cell-based screening assay is developed with NIH 3T3 cells to detect molecules capable of blocking PDGF-BB-induced tyrosine autophosphorylation of the PDGF receptor. The ability of the identified molecules to bind PDGF-BB and inhibit interaction with its receptor is then confirmed biochemically. Starved NIH 3T3 cells are pretreated for 5 min with the synthetic molecules prior to stimulation with PDGF for 10 min. The effects of the molecules on PDGF-stimulated receptor tyrosine phosphorylation are determined by the antiphosphotyrosine Western blotting as described in Table 1. […] GFB-111 has four-fold symmetry containing 4 identical peptide loops with negative and hydrophobic residues, GlyAspGlyTyr (GDGY) (SEQ ID NO. 6), that are designed to be complementary to the PDGF surface involved in binding to PDGFR. The area of PDGF-BB that binds PDGFR is composed primarily of positive and hydrophobic residues.
Starved NIH 3T3 cells are pretreated with the various GFBs (0-100 μM) for 5 min. prior to stimulation with PDGF (10 ng/ml) for 10 min. The cells are then harvested lysed and the proteins from the lysates are separated by SDS-PAGE and immunoblotted with an anti-phosphotyrosine antibody (4G10, Upstate Biotechnology, Lake Placid, N.Y.). The phosphotyrosine PDGF receptor bands are scanned and the concentrations of GFBs that inhibit the ability of PDGF to stimulate PDGFR tyrosine phosphorylation by 50% are determined. Data for each compound is representative of at least two independent experiments. FIG. 1 illustrates the structure of growth factor binders. GFBs are synthesized as described by Park, H. D. et al., Protein surface recognition by synthetic receptors: A route to novel sub-micromolar inhibitors for chymotrypsin. J. Am. Chem. Soc. 121, 8-13 (1999); and Hamuro, Y. et al., A calixarene with four peptide loops: An antibody mimic for recognition of protein surfaces. Angew. Chemie Int. Ed. Engl. 36, 2680-2683 (1997), each herein incorporated by reference in its respective entirety.

PDGF-BB [2] = target: T1, PDGF-BB (Homo sapiens, UniProt P01127); assay: Binding to PDGF-BB by native PAGE / SDS-PAGE gel electrophoresis
T1 construct: host or cells: NIH 3T3 cells carry the receptor
T1 sequence (P01127 82-190 limits assumed): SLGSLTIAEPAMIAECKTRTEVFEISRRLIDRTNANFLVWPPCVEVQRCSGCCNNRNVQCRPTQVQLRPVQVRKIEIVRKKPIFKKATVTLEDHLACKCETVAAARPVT
Method: GFB-111 (50 μM) is incubated with buffer A (PBS 0.5% BSA) or PDGF-BB (1, 3 and 4µM in buffer A) at room temperature for 10 minutes. The mixtures are then loaded onto a native 4% PAGE. The gel is then stained with silver nitrate. Duplicate lanes are run in the same gel but are not stained. Bands corresponding to the boxed area are cut out of the lanes of the gel that is not stained, denatured with SDS-PAGE loading buffer (Tris 100 mM pH 6.8, 15% Glycerol, 3% SDS, 7.5% b-mercaptoethanol, 0.05% bromophenol blue), loaded onto a 4% SDS-PAGE gel and silver stained.
The structure activity relationship results in Table 1 are consistent with GFB-111 being a PDGF-BB binding molecule. […] PDGF to its receptor on NIH 3T3 cells is determined by gel electrophoresis by mixing GFB-111 with PDGF-BB. […] FIG. 2B illustrates that the GFB-111 standard (lane 5) as well as the GFB-111 band cut out of FIG. 2A gel (lane 1) migrates on SDS-PAGE as a single band that elutes faster than the dye front. Their separation on SDS-PAGE (lane 2) is confirmed by mixing PDGF-BB standard (lane 4) and GFB-111 standard (lane 5).
GFB-111 is incubated with increasing concentrations of PDGF-BB and the mixtures are then loaded onto native PAGE. […]

PDGF-BB [3] = target: T1, PDGF-BB; assay: Inhibition of [125I]-PDGF-BB binding to its receptor on NIH 3T3 cells; conditions: FIG. 2C
Method: NIH 3T3 (PDGF) or NIH 3T3 cells overexpressing either EGFR (EGF), IGFR (IGF) or Flk-1 (VEGF), are incubated with [^125I]-PDGF, [^125I]-EGF, [^125I]-IGF or [^125I]-VEGF, respectively (50,000 cpm per well) and increasing concentrations of GFB-111 or GFB-116. Cells are incubated at 4° C. for 1-3 h. After discarding media, the cells are washed 3 times with PBS and three times with Tris 25 mM pH 8.0, 1% T-X-100, 10% glycerol, 1% SDS. Lysates plus wash are counted. Excess of cold growth factors is used to obtain non-specific binding levels.
Whether GFB 111 can block [^125I]-PDGF-BB specific binding in NIH 3T3 cells is determined by pre-treatment of the PDGF-BB with increasing concentrations of GFB-111. FIG. 2C illustrates that in the absence of GFB-111, [^125I]-PDGF-BB is bound by NIH3T3 cells. However, pre-treatment with increasing concentrations of GFB-111, results in a concentration-dependent decrease in PDGF-BB binding.

[4] = target: IGF-1 (insulin-like growth factor-1) (Homo sapiens, UniProt P05019); assay: Binding to IGF-1 by gel electrophoresis
Sequence of IGF-1 (insulin-like growth factor-1) (P05019 49-118 limits assumed, species assumed): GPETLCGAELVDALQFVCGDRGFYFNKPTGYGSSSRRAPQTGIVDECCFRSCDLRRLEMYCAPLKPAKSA

Compound	IC50 ([1]; 5 min pretreatment, PDGF 10 ng/ml 10 min, read-out: (IC50) Inhibition PDGFR-Y-P) [µM]	Binding to PDGF-BB (complex on native PAGE) (PDGF-BB [2])	Block of PDGF-BB binding to its receptor (PDGF-BB [3])	Concentration giving complete block of PDGF-BB stimulated receptor tyrosine phosphorylation [1] [µM]	IC50 ([1]; read-out: IC50 of inhibition of PDGF-BB stimulation of PDGF receptor tyrosine autophosphorylation) [µM]	Binding to IGF-1 [4]
GKGK [GFB-116]	40	does not bind	not	–	–	–
CCCCOc1c2cc(C(=O)Nc3cc4cc(c3)C(=O)NCC(=O)N[C@@H](CC(=O)O)C(=O)NCC(=O)N[C@@H](Cc3ccc(O)cc3)C(=O)NC4)cc1Cc1cc(C(=O)Nc3cc4cc(c3)C(=O)NCC(=O)N[C@@H](CC(=O)O)C(=O)NCC(=O)N[C@@H](Cc3ccc(O)cc3)C(=O)NC4)cc(c1OCCCC)Cc1cc(C(=O)Nc3cc4cc(c3)C(=O)NCC(=O)N[C@@H](CC(=O)O)C(=O)NCC(=O)N[C@@H](Cc3ccc(O)cc3)C(=O)NC4)cc(c1OCCCC)Cc1cc(C(=O)Nc3cc4cc(c3)C(=O)NCC(=O)N[C@@H](CC(=O)O)C(=O)NCC(=O)N[C@@H](Cc3ccc(O)cc3)C(=O)NC4)cc(c1OCCCC)C2 [GFB-111]	–	does indeed contain both PDGF-BB and GFB-111	blocked	3	0.25	does not bind
